Test results reported in patent US11713344B2 (DONG-A ST CO., LTD., priority 2017, dated 2023).

Columns and labels:
[1] = target: Human glucagon receptors (Homo sapiens, UniProt P47871); experiment: Glucagon receptor activation assay (CRE-luciferase reporter, CHO-K1)
Protocol: (§1) Then, the resulting increased luciferase activity was evaluated as a measurement of the effect on each receptor activation.
(§2) After 3 hours of transfection, medium was exchanged to Alpha Minimal Essential Medium (α-MEM) comprising 10% fetal bovine serum (FBS). Next day, the medium was exchanged to α-MEM comprising the analog of the present invention and 0.1% bovine serum albumin (BSA). After 6 hours, dual luciferase assay reagent was added in the same amount as the medium in which the cells were submerged, and firefly luciferase and Renilla luciferase activities were continuously measured. Firefly luciferase activity values were corrected against Renilla luciferase activity to yield transfection efficiency.

[2] = target: Human GLP-1 receptors (Homo sapiens, UniProt P43220); experiment: GLP-1 receptor activation assay (CRE-luciferase reporter, CHO-K1)
Protocol: as §1, §2

[3] = Body weight loss efficacy by 5-day repeated injection vs Liraglutide and MEDI0382, obese mice (Exp. Ex. 10); assay type: in vivo, C57BL/6 mouse; settings: 30 nmol/kg s.c. once a day x 4
Protocol: Male laboratory mice (C57BL/6 mouse) were given diet containing high fat. The mice with high-fat-diet-induced obesity were grouped by body weight before beginning the experiment. […] Body weight and food intake was measured once per day, at the same time each day.

Human GLP-1 receptors, sequence (P43220 24-463): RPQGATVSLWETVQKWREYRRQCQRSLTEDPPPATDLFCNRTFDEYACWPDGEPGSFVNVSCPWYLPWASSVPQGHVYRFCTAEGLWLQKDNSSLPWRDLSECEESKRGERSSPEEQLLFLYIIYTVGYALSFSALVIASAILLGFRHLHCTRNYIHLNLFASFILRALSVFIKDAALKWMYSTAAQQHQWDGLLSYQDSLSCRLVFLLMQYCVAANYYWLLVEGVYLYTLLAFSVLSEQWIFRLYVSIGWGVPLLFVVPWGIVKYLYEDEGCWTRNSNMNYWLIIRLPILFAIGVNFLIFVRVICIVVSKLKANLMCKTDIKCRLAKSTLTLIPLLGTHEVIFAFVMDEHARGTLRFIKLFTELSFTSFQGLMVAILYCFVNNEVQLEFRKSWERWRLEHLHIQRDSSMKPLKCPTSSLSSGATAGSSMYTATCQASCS
Human glucagon receptors, sequence (P47871 26-477): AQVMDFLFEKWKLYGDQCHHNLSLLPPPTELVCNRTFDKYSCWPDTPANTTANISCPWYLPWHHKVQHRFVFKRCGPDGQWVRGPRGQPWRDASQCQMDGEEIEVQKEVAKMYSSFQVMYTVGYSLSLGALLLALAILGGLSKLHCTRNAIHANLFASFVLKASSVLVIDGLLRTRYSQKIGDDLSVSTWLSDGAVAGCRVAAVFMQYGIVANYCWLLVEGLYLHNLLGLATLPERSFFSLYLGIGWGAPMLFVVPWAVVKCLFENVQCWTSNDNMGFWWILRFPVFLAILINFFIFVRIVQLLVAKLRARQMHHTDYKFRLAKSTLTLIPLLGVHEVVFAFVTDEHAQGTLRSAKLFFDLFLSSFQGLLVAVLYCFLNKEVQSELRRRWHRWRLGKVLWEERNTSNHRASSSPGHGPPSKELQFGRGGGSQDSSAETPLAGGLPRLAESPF

EC50 [1]: 0.01 to 0.1 nM
EC50 [2]: < 0.01 nM
SMILES: CCCCCCCCCCCCCCCC(=O)N[C@@H](CCC(=O)NCCCC[C@H](NC(=O)[C@H](CC(=O)O)NC(=O)[C@H](CO)NC(=O)[C@@H](NC(=O)[C@H](Cc1ccccc1)NC(=O)[C@@H](NC(=O)CNC(=O)[C@H](CCC(N)=O)NC(=O)[C@H](CO)NC(=O)[C@@H](N)Cc1c[nH]cn1)[C@@H](C)O)[C@@H](C)O)C(=O)N[C@@H](CO)C(=O)N[C@@H](CCC(=O)O)C(=O)N[C@@H](Cc1ccc(O)cc1)C(=O)N[C@@H](CC(C)C)C(=O)N[C@@H](CC(=O)O)C(=O)N[C@@H](CO)C(=O)N[C@@H](CCC(=O)O)C(=O)N[C@@H](CCCNC(=N)N)C(=O)N[C@@H](C)C(=O)N[C@@H](CCCNC(=N)N)C(=O)N[C@@H](CC(=O)O)C(=O)N[C@@H](Cc1ccccc1)C(=O)N[C@H](C(=O)N[C@@H](C)C(=O)N[C@@H](Cc1c[nH]c2ccccc12)C(=O)N[C@@H](CC(C)C)C(=O)N[C@@H](CCC(=O)O)C(=O)N[C@@H](C)C(=O)NCC(=O)NCC(=O)O)C(C)C)C(=O)O [MEDI0382, reference compound]
body weight loss from baseline [3]: 8.0%
